# Reference: patent US20260262643A1, “HERBICIDAL BENZOXAZINES” (FMC CORPORATION, priority 2022, published 2026)
# What was measured:
# pigweed, palmer [1] = assay: Test C preemergence; assay type: in vivo, Amaranthus palmeri
# Method in brief: (§1)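 Seeds in loam–sand blend received preemergence directed soil spray of test chemicals in non-phytotoxic solvent with surfactant; postemergence treatment was applied at one- to two-leaf stage (2–10 cm). After 10 days in greenhouse, injury rated visually versus untreated controls, 0 (no effect) to 100 (complete control).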
# ragweed [2] = assay: Test C postemergence; assay type: in vivo, Ambrosia artemisiifolia; conditions: 10 days, 0 to 100 scale (0 no effect, 100 complete control)
# Method in brief: as §1
# barnyardgrass [3] = assay: Test C preemergence; assay type: in vivo, Echinochloa crusgalli
# Method in brief: as §1
# sedge, umbrella = assay: Test D flooded paddy test; assay type: in vivo, Cyperus difformis; conditions: 250 g ai/ha, applied to paddy water, visual rating after 13 to 14 days, scale 0 to 100 (0 no effect, 100 complete control)
# Method in brief: (§2)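 2-leaf plants; flood 3 cm above soil; compound dosed into paddy water; greenhouse 13–14 d; visual rating vs controls, 0–100 (100 = complete control); dash = not tested.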
# rice = assay: Test D flooded paddy test; assay type: in vivo, Oryza sativa; conditions: 250 g ai/ha, applied to paddy water, visual rating after 13 to 14 days, scale 0 to 100 (0 no effect, 100 complete control)
# Method in brief: as §2
# ducksalad = assay: Test D flooded paddy test; assay type: in vivo, Heteranthera limosa; conditions: 250 g ai/ha, applied to paddy water, visual rating after 13 to 14 days, scale 0 to 100 (0 no effect, 100 complete control)
# Method in brief: as §2
# wheat [4] = assay: Test C preemergence; assay type: in vivo, Triticum aestivum
# Method in brief: as §1
# horseweed = assay: Test C postemergence; assay type: in vivo, Erigeron canadensis; conditions: 10 days, 0 to 100 scale (0 no effect, 100 complete control)
# Method in brief: as §1
# soybean [5] = assay: Test C postemergence; assay type: in vivo, Glycine max; conditions: 10 days, 0 to 100 scale (0 no effect, 100 complete control)
# Method in brief: as §1
# soybean [6] = assay: Test C preemergence; assay type: in vivo, Glycine max
# Method in brief: as §1
# green foxtail [7] = assay: Test C preemergence; assay type: in vivo, Setaria viridis
# Method in brief: as §1
# corn [8] = assay: Test C postemergence; assay type: in vivo, Zea mays; conditions: 10 days, 0 to 100 scale (0 no effect, 100 complete control)
# Method in brief: as §1
# corn [9] = assay: Test C preemergence; assay type: in vivo, Zea mays
# Method in brief: as §1
# oat, wild [10] = assay: Test C preemergence; assay type: in vivo, Avena fatua
# Method in brief: as §1
# pigweed, palmer [11] = assay: Test C postemergence; assay type: in vivo, Amaranthus palmeri; conditions: 10 days, 0 to 100 scale (0 no effect, 100 complete control)
# Method in brief: as §1
# kochia [12] = assay: Test C preemergence; assay type: in vivo, Bassia scoparia
# Method in brief: as §1
# kochia [13] = assay: Test C postemergence; assay type: in vivo, Bassia scoparia; conditions: 10 days, 0 to 100 scale (0 no effect, 100 complete control)
# Method in brief: as §1
# blackgrass [14] = assay: Test C preemergence; assay type: in vivo, Alopecurus myosuroides
# Method in brief: as §1
# green foxtail [15] = assay: Test C postemergence; assay type: in vivo, Setaria viridis; conditions: 10 days, 0 to 100 scale (0 no effect, 100 complete control)
# Method in brief: as §1
# barnyardgrass [16] = assay: Test C postemergence; assay type: in vivo, Echinochloa crusgalli; conditions: 10 days, 0 to 100 scale (0 no effect, 100 complete control)
# Method in brief: as §1
# ragweed [17] = assay: Test C preemergence; assay type: in vivo, Ambrosia artemisiifolia
# Method in brief: as §1
# oat, wild [18] = assay: Test C postemergence; assay type: in vivo, Avena fatua; conditions: 10 days, 0 to 100 scale (0 no effect, 100 complete control)
# Method in brief: as §1
# wheat [19] = assay: Test C postemergence; assay type: in vivo, Triticum aestivum; conditions: 10 days, 0 to 100 scale (0 no effect, 100 complete control)
# Method in brief: as §1
# blackgrass [20] = assay: Test C postemergence; assay type: in vivo, Alopecurus myosuroides; conditions: 10 days, 0 to 100 scale (0 no effect, 100 complete control)
# Method in brief: as §1
# ryegrass, Italian [21] = assay: Test C postemergence; assay type: in vivo, Lolium multiflorum; conditions: 10 days, 0 to 100 scale (0 no effect, 100 complete control)
# Method in brief: as §1
# ryegrass, Italian [22] = assay: Test C preemergence; assay type: in vivo, Lolium multiflorum
# Method in brief: as §1
# barnyardgrass [23] = assay: Test D flooded paddy test; assay type: in vivo, Echinochloa crus-galli; conditions: 250 g ai/ha, applied to paddy water, visual rating after 13 to 14 days, scale 0 to 100 (0 no effect, 100 complete control)
# Method in brief: as §2
# galium = assay: Test C postemergence; assay type: in vivo, Galium aparine; conditions: 10 days, 0 to 100 scale (0 no effect, 100 complete control)
# Method in brief: as §1
# [24] = 500 g ai/ha, preemergence, 0 to 100 scale (0 no effect, 100 complete control)
# [25] = Preemergence, 125 g ai/ha, 0 to 100 scale, 0 no effect, 100 complete control
structure (smiles),measurement,setting,value
CC(C)c1ncn(-c2ccc([S+](C)[O-])c(C(=O)N3C[C@H](C)Oc4c(Cl)cccc43)c2)n1 (stereo partly shown) [Compound 394],"Pigweed, Palmer plant response rating","pigweed, palmer [1]; [24]",100
same,"Plant response rating, Pigweed, Palmer","pigweed, palmer [1]; [25]",100
same,"Plant response rating, Ragweed","ragweed [2]; 500 g ai/ha, postemergence",70
same,"Plant response rating, Ragweed","ragweed [2]; Postemergence, 125 g ai/ha",70
same,Barnyardgrass plant response rating,barnyardgrass [3]; [24],100
same,"Plant response rating, Barnyardgrass",barnyardgrass [3]; [25],70
same,"Plant response rating, Sedge, Umbrella (Flood)","sedge, umbrella",0
same,"Plant response rating, Rice (Flood)",rice,0
same,"Plant response rating, Ducksalad (Flood)",ducksalad,10
same,Wheat plant response rating,wheat [4]; [24],80
same,"Plant response rating, Wheat",wheat [4]; [25],20
same,"Plant response rating, Horseweed","horseweed; 500 g ai/ha, postemergence",20
same,"Plant response rating, Horseweed","horseweed; Postemergence, 125 g ai/ha",0
same,"Plant response rating, Soybean","soybean [5]; 500 g ai/ha, postemergence",100
same,"Plant response rating, Soybean","soybean [5]; Postemergence, 125 g ai/ha",100
same,Soybean plant response rating,soybean [6]; [24],100
same,"Plant response rating, Soybean",soybean [6]; [25],20
same,"Foxtail, Green plant response rating",green foxtail [7]; [24],100
same,"Plant response rating, Foxtail, Green",green foxtail [7]; [25],100
same,"Plant response rating, Corn","corn [8]; 500 g ai/ha, postemergence",50
same,"Plant response rating, Corn","corn [8]; Postemergence, 125 g ai/ha",20
same,Corn plant response rating,corn [9]; [24],30
same,"Plant response rating, Corn",corn [9]; [25],20
same,"Oat, Wild plant response rating","oat, wild [10]; [24]",90
same,"Plant response rating, Oat, Wild","oat, wild [10]; [25]",30
same,"Plant response rating, Pigweed, Palmer","pigweed, palmer [11]; 500 g ai/ha, postemergence",80
same,"Plant response rating, Pigweed, Palmer","pigweed, palmer [11]; Postemergence, 125 g ai/ha",80
same,Kochia plant response rating,kochia [12]; [24],100
same,"Plant response rating, Kochia",kochia [12]; [25],90
same,"Plant response rating, Kochia","kochia [13]; 500 g ai/ha, postemergence",90
same,"Plant response rating, Kochia","kochia [13]; Postemergence, 125 g ai/ha",90
same,Blackgrass plant response rating,blackgrass [14]; [24],90
same,"Plant response rating, Blackgrass",blackgrass [14]; [25],30
same,"Plant response rating, Foxtail, Green","green foxtail [15]; 500 g ai/ha, postemergence",90
same,"Plant response rating, Foxtail, Green","green foxtail [15]; Postemergence, 125 g ai/ha",30
same,"Plant response rating, Barnyardgrass","barnyardgrass [16]; 500 g ai/ha, postemergence",70
same,"Plant response rating, Barnyardgrass","barnyardgrass [16]; Postemergence, 125 g ai/ha",50
same,Ragweed plant response rating,ragweed [17]; [24],50
same,"Plant response rating, Ragweed",ragweed [17]; [25],0
same,"Plant response rating, Oat, Wild","oat, wild [18]; 500 g ai/ha, postemergence",70
same,"Plant response rating, Oat, Wild","oat, wild [18]; Postemergence, 125 g ai/ha",50
same,"Plant response rating, Wheat","wheat [19]; 500 g ai/ha, postemergence",50
same,"Plant response rating, Wheat","wheat [19]; Postemergence, 125 g ai/ha",30
same,"Plant response rating, Blackgrass","blackgrass [20]; 500 g ai/ha, postemergence",70
same,"Plant response rating, Blackgrass","blackgrass [20]; Postemergence, 125 g ai/ha",50
same,"Plant response rating, Ryegrass, Italian","ryegrass, Italian [21]; 500 g ai/ha, postemergence",90
same,"Plant response rating, Ryegrass, Italian","ryegrass, Italian [21]; Postemergence, 125 g ai/ha",50
same,"Ryegrass, Italian plant response rating","ryegrass, Italian [22]; [24]",90
same,"Plant response rating, Ryegrass, Italian","ryegrass, Italian [22]; [25]",60
same,"Plant response rating, Barnyardgrass (Flood)",barnyardgrass [23],15
same,"Plant response rating, Galium","galium; 500 g ai/ha, postemergence",100
same,"Plant response rating, Galium","galium; Postemergence, 125 g ai/ha",100
